Results on five molecules are retold here after patent publication US6680177B2, “Low molecular weight heparin assay, system and reagent therefor” (Cardiovascular Diagnostics, Inc., priority 2001, dated 2004).

Where a SMILES comes first, the peptide text is derived from it. Bridges are numbered along the chain shown (N, C = ends). [ ]: non-standard residue; d: D form. hArg = N=C(N)NCCCC[C@H](N)C(=O)O; Mpa = O=C(O)CCS

The test system of the assay is citrated whole blood (CWB). The experiment in a line: Interference testing for Rapidpoint ENOX test in citrated whole blood. It counts as biochemical. To be noted: for EFFECT on ENOX test: CWB; for sensitivity of the ENOX test to the agent: in vitro, citrated whole blood.

Take `CC(=O)Oc1ccccc1C(=O)O` [Aspirin]: the “sensitivity of the ENOX test to the agent” value (shortened to “sensitivity of the ENOX test”) is reported as “insensitive”. Besides, where the note is “0-300 ug/ml”, the “EFFECT on ENOX test” value is “No effect at 0-300 ug/ml”. In the case of `N=C(N)NCCCC[C@@H]1NC(=O)CCSSC[C@@H](C(N)=O)NC(=O)[C@@H]2CCCN2C(=O)[C@H](Cc2c[nH]c3ccccc23)NC(=O)[C@H](CC(=O)O)NC(=O)CNC1=O` [Eptifibatide] ([Mpa][hArg]GDWPC-NH2; disulfide 1-7), the “sensitivity of the ENOX test” value is listed as “insensitive”. Further, the “EFFECT on ENOX test” value (0-2600 ng/ml) was “No effect at 0-2600 ng/ml”. Take `O=C(c1ccccc1)c1ccc2n1CCC2C(=O)O` (centres unmarked) [Ketorolac tromethamine]: the “EFFECT on ENOX test” value (0-12 ng/ml) is reported as “No effect at 0-12 ng/ml”. Turning to `O=[N+]([O-])OCC(CO[N+](=O)[O-])O[N+](=O)[O-]` [Nitroglycerin], the “EFFECT on ENOX test” value (0-1000 ng/ml) was “No effect at 0-1000 ng/ml”.

Turning to `CCCCS(=O)(=O)N[C@@H](Cc1ccc(OCCCCC2CCNCC2)cc1)C(=O)O` [Tirofiban], the “sensitivity of the ENOX test” value is given as “insensitive”. The “EFFECT on ENOX test” value (0-5600 ng/ml) is recorded as “No effect at 0-5600 ng/ml”.
